Test system: KBV1 cells
Conditions: KBV1 vs wild type KB cells
Description: The ability of compounds of this invention to reverse multi drug resistance can be determined using standard test procedures. The ability of the test compounds to inhibit the growth of multidrug resistant human epidermoid carcinoma (KBV1) cells in the presence of both Vinblastine and the compound was determined.

CC[C@]1(O)C[C@@H]2CN(CCc3c([nH]c4ccccc34)[C@@](C(=O)OC)(c3cc4c(cc3OC)N(C)[C@H]3[C@@](O)(C(=O)OC)[C@H](OC(C)=O)[C@]5(CC)C=CCN6CC[C@]43[C@@H]65)C2)C1 [Vinblastine]
resistance to vinblastine compared to wild type KB cells: at least 1,000 times
